“Also recorded” adds a separate entry of the source. Like-named read-outs stand apart in the source and are kept apart here.
Key:
[1] = system: NO production in IL-1β-treated rat hepatocytes; settings: cited from earlier work
[2] = system: primary-cultured rat hepatocytes; assay: LDH activity in the hepatocyte medium (cytotoxicity); format: cell-based; settings: for Cytotoxicity / LDH activity of the medium: hepatocytes, 8 h incubation; for LDH activity in the medium (cytotoxicity): at the concentrations of the NO assay, 8 h
Method: (§1) After 8 h of incubation with 1 nM IL-1β and/or a fraction or compound, nitrite (a stable metabolite of NO) was measured in triplicate using the Griess method. The NO concentration in the medium alone was set at 0%, whereas the concentration in the medium including IL-1β alone was set at 100%. […] Cytotoxicity was monitored by estimating the LDH activity in the medium using LDH Cytotoxicity Detection Kits (Takara Bio Inc., Kusatsu, Japan). The Griess reagent was added to the medium and incubated at 20–23 °C for 5 min, and the absorbance at 540 nm was measured to determine the decrease in nitrite. The LDH activity of the whole-cell extract was assumed to be 100%, whereas the LDH activity of the medium alone was assumed to have no cytotoxicity (i.e., less than 5% of the LDH activity of the whole-cell extract).

[3] = system: NO production in IL-1β-treated rat hepatocytes; assay: NO production (nitrite, Griess method) in IL-1β-treated primary-cultured rat hepatocytes; format: cell-based; settings: for IC50: Rattus norvegicus, Hepatocyte
Method: (§2) After acclimatization, the Wistar rats were euthanized by the intraperitoneal administration of an anesthetic combination of medetomidine hydrochloride, midazolam, and butorphanol tartrate. Rat livers were used to prepare hepatocytes as previously described. In brief, the liver was perfused with collagenase. The cells were resuspended in Williams’ E (WE) medium supplemented with 10% newborn calf serum, 10 nM dexamethasone, and 10 nM human insulin and seeded at 1.2 ×10^6 cells per 35 mm diameter dish. After the medium was replaced with serum-free WE medium, the cells were incubated overnight. The next day, the medium was replaced with WE medium containing 1 nM recombinant rat IL-1β [54] and/or a fraction or compound. The hepatocytes were further incubated at 37 °C for 4 h before RNA extraction or for 8 h before measuring the NO levels and performing a Western blot analysis of the cell lysates.
as §1

iNOS mRNA = assay: RT-qPCR of iNOS mRNA in IL-1β-treated hepatocytes; format: cell-based, rat; settings: with IL-1β; normalized to Ef1a mRNA; versus IL-1β alone
Method: as §2
(§3) Hepatocytes were lysed in Sepasol I Super G solution (Nacalai Tesque, Inc.) to extract total RNA, which was purified using an RNAqueous Kit and a TURBO DNA-free Kit (Applied Biosystems, Austin, TX, USA). The resulting RNA was converted to cDNA, which was amplified by PCR in triplicate with primers, SYBR Green I, and the Thermal Cycler Dice Real-Time System (Takara Bio Inc.). Ct values were calculated by the ΔΔCt method and then normalized to elongation factor 1α (Ef1a) mRNA [18, 54]. The mRNA levels normalized to the total RNA from the livers of the mice fed a diet alone were set at 100%.

iNOS protein = assay: Immunoblot of iNOS protein in IL-1β-treated hepatocytes; format: cell-based, rat; settings: with IL-1β, 8 h; β-tubulin control
Method: as §2
Hepatocyte lysates were prepared, resolved on a 10% sodium dodecyl sulfate–polyacrylamide gel, and transferred onto a membrane, as previously described. […] The protein of interest was visualized by ECL Western blotting Detection Reagents (Cytiva, Tokyo, Japan) and detected using an Amersham Imager 600 (Cytiva).

[4] = system: iNOS antisense transcript (iNOS-AS); assay: RT-qPCR of iNOS antisense transcript in IL-1β-treated hepatocytes; format: cell-based, rat; settings: with IL-1β; RNA 3 h after addition
Method: as §2, with “The hepatocytes were further incubated at 37 °C for 4 h before RNA extraction or for 8 h before measuring the NO levels and performing a Western blot analysis of the cell lysates.” left out
as §3

[5] = system: rat liver injuries caused by ischemia–reperfusion and partial hepatectomy; design: method as in PMID 38727775; settings: cited from earlier work
Tnf mRNA = assay: RT-qPCR of Tnf mRNA in IL-1β-treated hepatocytes; format: cell-based, rat; settings: with IL-1β; normalized to Ef1a mRNA; versus IL-1β alone
Method: as §2, §3

lymphotoxin β (Ltb) mRNA = assay: RT-qPCR of Ltb mRNA in IL-1β-treated hepatocytes; format: cell-based, rat; settings: with IL-1β, 4 h; normalized to Ef1a mRNA
Method: as §2
as §3, with “The mRNA levels normalized to the total RNA from the livers of the mice fed a diet alone were set at 100%.” left out

[6] = system: iNOS antisense transcript (iNOS-AS); design: method as in PMID 28681120, doi:10.7243/2050-0874-1-2, PMID 27774888; settings: cited from earlier work
Il1r1 mRNA [7] = assay: RT-qPCR of Il1r1 mRNA in IL-1β-treated hepatocytes; format: cell-based, rat; settings: with IL-1β; normalized to Ef1a mRNA; versus IL-1β alone
Method: as §2
as §3, with “The mRNA levels normalized to the total RNA from the livers of the mice fed a diet alone were set at 100%.” left out

[8] = system: LPS-treated RAW264.7 cells; design: method as in PMID 38339007; settings: read-out: IC50 for NO production; cited from earlier work
Il1r1 mRNA [9] = settings: cited from earlier work
[10] = means ± SDs, read-out: IC50 (μM) for NO production in IL-1β-stimulated hepatocytes
[11] = constituents of Atractylodes chinensis rhizomes
[12] = 1 nM IL-1β, 8 h, means ± SDs, at least three experiments, read-out: IC50 (μM) for NO production in IL-1β-stimulated hepatocytes

Compound: C/C=C/C#CC#C/C=C/c1ccco1 [atractylodin]
- IC50 ([1]; constituents of Atractylodes chinensis rhizomes, read-out: IC50 for inhibition of NO production in hepatocytes): 8.25 µM

Compound: COc1ccc2cc3[n+](cc2c1OC)CCc1cc2c(cc1-3)OCO2 [Berberine]
- IC50 [1, 10]: 12 ± 3.4 µM

Compound: C=C1CCC[C@]2(C)CC[C@@H](C(C)(C)O)C[C@@H]12 [β-eudesmol]
- IC50 for inhibition of NO production in hepatocytes [1, 11]: could not be calculated

Compound: C=C(C)[C@@H]1CC[C@]2(C(=O)O)CC[C@]3(C)[C@H](CC[C@@H]4[C@@]5(C)CC[C@H](O)C(C)(C)[C@@H]5CC[C@]43C)[C@@H]12 [betulinic acid, reference compound]
- Cytotoxicity / LDH activity of the medium [2]: increased LDH activity in a concentration-dependent manner

Compound: O=C(O)[C@H]1O[C@@H](Oc2cc3oc(-c4ccccc4)cc(=O)c3c(O)c2O)[C@H](O)[C@@H](O)[C@@H]1O [Baicalin]
- IC50 relative to that of baicalein ([3]; IL-1β-treated hepatocytes, greater than baicalein): 3.3 fold
- IC50 ([3]; authors' unpublished data (A.F., K.I., M.N.), read-out: IC50 for NO production in IL-1β-treated hepatocytes): 55 µM

Compound: O=c1cc(-c2ccccc2)oc2cc(O)c(O)c(O)c12 [Baicalein, baicalein]
- IC50 [3, 12]: 16.8 ± 7.93 µM
- LDH activity in the medium (cytotoxicity) [2]: < 5 % of the activity of the whole-cell extract
- iNOS mRNA level (iNOS mRNA): reduced
- iNOS protein level (iNOS protein): reduced
- iNOS-AS level [4]: inhibited iNOS-AS in a concentration-dependent manner
- Liver injury [5]: attenuated

Compound: CC1=CCC[C@H](C)[C@@]12CC[C@@H](C(C)(C)O)C2 [(+)-hinesol]
- IC50 for inhibition of NO production in hepatocytes [1, 11]: could not be calculated

Compound: C=C[C@H](/C=C\c1ccc(O)cc1)c1ccc(O)cc1 [(−)-Nyasol, (−)-nyasol]
- IC50 [3, 12]: 18.3 ± 2.99 µM
- LDH activity in the medium (cytotoxicity) [2]: < 5 % of the activity of the whole-cell extract
- iNOS mRNA level (iNOS mRNA): significantly decreased
- Tnf mRNA level (Tnf mRNA): significantly reduced
- Ltb mRNA level (lymphotoxin β (Ltb) mRNA): significantly reduced

Compound: COC(=O)C1=CO[C@@H](O)[C@@H]2C(CO)=CC[C@H]12 [Genipin, genipin]
- IC50 [3, 12]: 4.4 ± 0.85 µM
- iNOS-AS level [6]: reducing iNOS-AS

Compound: CC1(C)CC[C@]2(C(=O)O)CC[C@]3(C)C(=CC[C@@H]4[C@@]5(C)CC[C@H](O)C(C)(C)[C@@H]5CC[C@]43C)[C@@H]2C1 [oleanolic acid, reference compound]
- Cytotoxicity / LDH activity of the medium [2]: increased LDH activity in a concentration-dependent manner

Compound: COc1cc(C2OCC3C(c4ccc(OC)c(OC)c4)OCC23)ccc1O (single isomer, unassigned; (+)) [(+)-Phillygenin, (+)-phillygenin]
- IC50 [3, 12]: 193 ± 47.6 µM
- Cytotoxicity / LDH activity of the medium [2]: background LDH activity at concentrations up to 300 μM; also recorded: without showing cytotoxicity
- iNOS mRNA level (iNOS mRNA): decreased
- Tnf mRNA level (Tnf mRNA): decreased
- Il1r1 mRNA level (Il1r1 mRNA [7]): decreased

Compound: COC(=O)C1=CO[C@@H](O[C@@H]2O[C@H](CO)[C@@H](O)[C@H](O)[C@H]2O)[C@@H]2C(CO)=CC[C@H]12 [geniposide]
- Effect on IL-1β-induced NO production ([3]; IL-1β-treated hepatocytes): did not decrease NO production
- Inhibition of NO production ([3]; up to a final concentration of 800 μM): did not inhibit NO production
- IC50 [8]: 136 µM

Compound: CC(C(=O)O)c1ccc(CC2CCCC2=O)cc1 (centres unmarked) [loxoprofen]
- Il1r1 gene expression (Il1r1 mRNA [9]; rat hepatocytes): suppress

Compound: O=c1cc(-c2ccc(Oc3ccc(-c4cc(=O)c5c(O)cc(O)cc5o4)cc3O)cc2)oc2cc(O)cc(O)c12 [Loniflavone, loniflavone]
- IC50 [3, 12]: 1.64 ± 0.17 µM
- Cytotoxicity / LDH activity of the medium [2]: Cytotoxicity was not observed
- iNOS mRNA level (iNOS mRNA): decreased
- Tnf mRNA level (Tnf mRNA): decreased
- Il1r1 mRNA level (Il1r1 mRNA [7]): significantly decreased

Compound: CC1(C)OC(=O)C=C[C@]2(C)[C@H]3CC[C@@]4(C)[C@H](c5ccoc5)OC(=O)[C@H]5O[C@]54[C@]3(C)C(=O)C[C@@H]12 [Obakunone]
- IC50 [1, 10]: 2.6 ± 1.1 µM
- iNOS-AS level [6]: reducing iNOS-AS

Compound: O=C(/C=C/c1ccc(O)c(O)c1)O[C@@H]1C[C@](O)(C(=O)O)C[C@@H](O)[C@H]1O [Chlorogenic acid]
- IC50 [1, 10]: 652 ± 114 µM
- iNOS-AS level [6]: reducing iNOS-AS

Compound: COc1cc(O)c2c(c1)O[C@H](c1ccc(O)cc1)CC2=O [Sakuranetin, (S)-(–)-4′,5-dihydroxy-7-methoxyflavanone]
- Il1r1 gene expression (Il1r1 mRNA [9]): decreases

Compound: CC(=O)Oc1ccccc1C(=O)O [aspirin]
- Il1r1 gene expression (Il1r1 mRNA [9]; rat hepatocytes): suppress

Reference: publication PMC11768083, “Crude Drugs for Clearing Heat Contain Compounds Exhibiting Anti-Inflammatory Effects in Interleukin-1β-Treated Rat Hepatocytes” (Molecules, 2025)
